US20240415819A1, “MACROCYCLIC COMPOUNDS AS PROTEASOME SUBUNIT BETA TYPE-5 INHIBITORS” (Lead Discovery Center GmbH, priority 2021, published 2024)

Legend:
[1] = biological target: T1, β5 subunit of the human constitutive proteasome (CPS) (Homo sapiens, UniProt P28074); assay: β5 inhibition assay, human constitutive proteasome (Suc-LLVY-AMC); assay type: biochemical; details: IC50 class, Suc-LLVY-AMC substrate
T1 construct: purchased Boston Biochem E-360
Experimental: The enzymatic activity of the β5 subunit of the human constitutive proteasome (CPS) is analyzed. In another assay, which differs from the assay of the human constitutive proteasome only in using the human immunoproteasome (IPS) the enzymatic activity of the β5 subunit of the human immunoproteasome (IPS) is analyzed. […] Inhibition is indicated as IC50 [nM] (“-”=not measured).

[2] = tested on: Hs 746T (human gastric carcinoma cell line); assay: 48 hr CTG viability assay, Hs 746T; assay type: cell-based; details: Hs746T, 48 hr CTG, read-out: Hs 746T IC50
Outline: (§1)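 Growth inhibition by compound over 48 h; IC50 (nM) derived from duplicate CellTiter-Glo luminescence readings across 0.0015–10 uM.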

[3] = tested on: A549 (human lung carcinoma cell line); assay: Glo assay of A549 cells (Table 3; ProteasomeGlo plating scheme); assay type: cell-based; details: Homo sapiens; A549 cells; read-out: PGLo A549
Outline: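 IC50 values (nM) come from a cell-based chymotrypsin-like Proteasome-Glo luminescence assay. Compound exposure ran 105 min at 37° C.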

[4] = tested on: MM1 S (B lymphoblast cell line); assay: 48 hr CTG viability assay, MM1S; assay type: cell-based; details: Homo sapiens, 48 hr CTG, read-out: MM1S IC50
Outline: as §1

[5] = biological target: T2, β5 subunit of the human immunoproteasome (IPS) (Homo sapiens, UniProt P28062); assay: β5 inhibition assay, human immunoproteasome (Suc-LLVY-AMC); assay type: biochemical; details: IC50 class, Suc-LLVY-AMC substrate
T2 construct: purchased Boston Biochem E-370
Outline: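 β5 activity is read as liberated AMC fluorescence (355/460 nm) after 4 h dark reaction at RT with 22.6 μM Suc-LLVY-AMC, stopped by 1 μM bortezomib. Beforehand, 1 nM human IPS and compound sat 10 min at RT in HEPES pH 7.5 buffer containing NaCl, 0.02% SDS and DTT.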

[6] = tested on: RPMI 8226 (B lymphocyte cell line, multiple myeloma); assay: 48 hr CTG viability assay, RPMI 8226; assay type: cell-based; details: Homo sapiens, RPMI-8226; 48 hr CTG; read-out: RPMI-8226 IC50
Outline: as §1

| SMILES | IC50 [1] [nM] | IC50 [2] [nM] | IC50 [3] [nM] | IC50 [4] [nM] | IC50 [5] [nM] | IC50 [6] [nM] |
| --- | --- | --- | --- | --- | --- | --- |
| Cc1ccc2cc1CNC(=O)[C@H](CCc1ccccc1)NC(=O)[C@@H](NC(=O)N1CC(C)(O)C1)CC(=O)N1CCCC(CCO2)C1 (stereo partly drawn) [Compound 669, 3-hydroxy-3-methyl-N-((9S,12S)-5^4-methyl-8,11,14-trioxo-9-phenethyl-4-oxa-7,10-diaza-1(3,1)-piperidina-5(1,3)-benzenacyclotetradecaphane-12-yl)azetidine-1-carboxamide] | < 100 | < 100 | < 100 | < 100 | < 100 | < 100 |
| Cc1ccc2cc1CNC(=O)[C@H](CCc1ccccc1)NC(=O)[C@@H](NC(=O)CCNS(=O)(=O)c1ccc(OCC3CCCCC3)cc1)CC(=O)N1CCCC(CCO2)C1 (stereo partly drawn) [Compound 672, 3-((4-(cyclohexylmethoxy)phenyl)sulfonamido)-N-((9S,12S)-5^4-methyl-8,11,14-trioxo-9-phenethyl-4-oxa-7,10-diaza-1(3,1)-piperidina-5(1,3)-benzenacyclotetradecaphane-12-yl)propanamide] | < 100 | < 100 | < 100 | < 100 | < 100 | < 100 |
| Cc1ccc2cc1CNC(=O)[C@H](CCc1ccccc1)NC(=O)[C@@H](NC(=O)CCN1CC3CCC1C3)CC(=O)N1CCCC(CCO2)C1 (stereo partly drawn) [Compound 673, 3-(2-azabicyclo[2.2.1]heptan-2-yl)-N-((9S,12S)-5^4-methyl-8,11,14-trioxo-9-phenethyl-4-oxa-7,10-diaza-1(3,1)-piperidina-5(1,3)-benzenacyclotetradecaphane-12-yl)propanamide] | < 100 | < 100 | < 100 | < 100 | < 100 | < 100 |
| Cc1ccc2cc1CNC(=O)[C@H](CCc1ccccc1)NC(=O)[C@@H](NC(=O)CCNCC1CCC1)CC(=O)N1CCCC(CCO2)C1 (stereo partly drawn) [Compound 674, 3-((cyclobutylmethyl)amino)-N-((9S,12S)-5^4-methyl-8,11,14-trioxo-9-phenethyl-4-oxa-7,10-diaza-1(3,1)-piperidina-5(1,3)-benzenacyclotetradecaphane-12-yl)propanamide] | < 100 | < 100 | < 100 | < 100 | < 100 | < 100 |
| Cc1ccc2cc1CNC(=O)[C@H](CCc1ccccc1)NC(=O)[C@@H](NC(=O)CCNC1CCCC1)CC(=O)N1CCCC(CCO2)C1 (stereo partly drawn) [Compound 675, 3-(cyclopentylamino)-N-((9S,12S)-5^4-methyl-8,11,14-trioxo-9-phenethyl-4-oxa-7,10-diaza-1(3,1)-piperidina-5(1,3)-benzenacyclotetradecaphane-12-yl)propanamide] | < 100 | < 100 | < 100 | < 100 | < 100 | < 100 |
| Cc1ccc2cc1CNC(=O)[C@H](CCc1ccccc1)NC(=O)[C@@H](NC(=O)N1CCC(C)(O)CC1)CC(=O)N1CCCC(CCO2)C1 (stereo partly drawn) [Compound 676, 4-hydroxy-4-methyl-N-((9S,12S)-5^4-methyl-8,11,14-trioxo-9-phenethyl-4-oxa-7,10-diaza-1(3,1)-piperidina-5(1,3)-benzenacyclotetradecaphane-12-yl)piperidine-1-carboxamide] | < 100 | < 100 | < 100 | < 100 | < 100 | < 100 |
| Cc1ccc2cc1CNC(=O)[C@H](CCc1ccccc1)NC(=O)[C@@H](NC(=O)CCNCC1CCCC1)CC(=O)N1CCCC(CCO2)C1 (stereo partly drawn) [Compound 677, 3-((cyclopentylmethyl)amino)-N-((9S,12S)-5^4-methyl-8,11,14-trioxo-9-phenethyl-4-oxa-7,10-diaza-1(3,1)-piperidina-5(1,3)-benzenacyclotetradecaphane-12-yl)propanamide] | < 100 | < 100 | 100 to 500 | < 100 | < 100 | < 100 |
| Cc1ccc2cc1CNC(=O)C(CCc1ccncc1)NC(=O)[C@@H](NC(=O)Cc1ccc(N)cc1C)CC(=O)N1CCCC(CCO2)C1 (stereo partly drawn) [Compound 678, 2-(4-amino-2-methylphenyl)-N-((12S)-5^4-methyl-8,11,14-trioxo-9-(2-(pyridin-4-yl)ethyl)-4-oxa-7,10-diaza-1(3,1)-piperidina-5(1,3)-benzenacyclotetradecaphane-12-yl)acetamide] | < 100 | < 100 | < 100 | < 100 | < 100 | < 100 |
| Cc1ccc2cc1CNC(=O)[C@H](CCc1ccccc1)NC(=O)[C@@H](NC(=O)CCNCCC1CC1)CC(=O)N1CCCC(CCO2)C1 (stereo partly drawn) [Compound 679, 3-((2-cyclopropylethyl)amino)-N-((9S,12S)-5^4-methyl-8,11,14-trioxo-9-phenethyl-4-oxa-7,10-diaza-1(3,1)-piperidina-5(1,3)-benzenacyclotetradecaphane-12-yl)propanamide] | < 100 | < 100 | < 100 | < 100 | < 100 | < 100 |
| Cc1ccc2cc1CNC(=O)[C@H](CCc1ccccc1)NC(=O)[C@@H](NC(=O)CCNC1CCC1)CC(=O)N1CCCC(CCO2)C1 (stereo partly drawn) [Compound 680, 3-(cyclobutylamino)-N-((9S,12S)-5^4-methyl-8,11,14-trioxo-9-phenethyl-4-oxa-7,10-diaza-1(3,1)-piperidina-5(1,3)-benzenacyclotetradecaphane-12-yl)propanamide] | < 100 | < 100 | < 100 | < 100 | < 100 | < 100 |
| Cc1ccc2cc1CNC(=O)[C@H](CCc1ccccc1)NC(=O)[C@@H](NC(=O)N1CCC(O)CC1)CC(=O)N1CCCC(CCO2)C1 (stereo partly drawn) [Compound 681, 4-hydroxy-N-((9S,12S)-5^4-methyl-8,11,14-trioxo-9-phenethyl-4-oxa-7,10-diaza-1(3,1)-piperidina-5(1,3)-benzenacyclotetradecaphane-12-yl)piperidine-1-carboxamide] | < 100 | < 100 | < 100 | < 100 | < 100 | < 100 |
| CC(C)(CO)C(=O)N[C@H]1CC(=O)N2CCCC(CCOc3ccc(F)c(c3)CNC(=O)[C@H](CCc3ccccc3)NC1=O)C2 (stereo partly drawn) [Compound 684, N-((9S,12S)-5^4-fluoro-8,11,14-trioxo-9-phenethyl-4-oxa-7,10-diaza-1(3,1)-piperidina-5(1,3)-benzenacyclotetradecaphane-12-yl)-3-hydroxy-2,2-dimethylpropanamide] | < 100 | < 100 | < 100 | < 100 | < 100 | < 100 |
| CC(=O)N[C@H]1CC(=O)N2CCCC(CCOc3ccc(C)c(c3)CNC(=O)[C@H](C3Cc4ccccc4C3)NC1=O)C2 (stereo partly drawn) [Compound 685, N-((9S,12S)-9-(2,3-dihydro-1H-inden-2-yl)-5^4-methyl-8,11,14-trioxo-4-oxa-7,10-diaza-1(3,1)-piperidina-5(1,3)-benzenacyclotetradecaphane-12-yl)acetamide] | < 100 | < 100 | < 100 | < 100 | < 100 | < 100 |
